Laboratory results: patent US20130040933A1, “AZAINDOLES AS JANUS KINASE INHIBITORS” (priority 2010, published 2013)
pIC50: −log10 of the molar value.

target: T1, rhJAK3 (Homo sapiens, UniProt P52333); experiment: JAK Biochemical HTRF Assay (JAK3); settings: recombinant purified GST-tagged catalytic domain, HTRF format, [ATP] 1.7 μM; read-out: rhJAK3 IC50
T1 construct: recombinant purified GST-tagged catalytic domain for each enzyme; purchased Invitrogen PV3855
Experimental: JAK Biochemical HTRF Assay Protocol
The ability of compounds to inhibit the activity of JAK1, JAK2, JAK3, and TYK2 was measured using a recombinant purified GST-tagged catalytic domain for each enzyme (Invitrogen JAK1 #PV4774, JAK2 #PV4210, JAK3 #PV3855, TYK2 #PV4790) in an HTRF format biochemical assay. The reactions employed a common peptide substrate, LCB-EQEDEPEGDYFEWLW-NH2. The basic assay protocol is as follows: First, […] of diluted compounds in DMSO were dispensed into the wells of a dry 384-well Black plate (Greiner #781076) using a Labcyte Echo 555 acoustic dispenser. Subsequent reagent additions employed a Thermo Multidrop Combi nL. Next, 10 μL of 2× enzyme and 2× substrate in 1× assay buffer (Invitrogen kinase buffer #PV3189, 2 mM DTT, 0.05% BSA) were added to the wells and preincubated for 30 min at room temperature to allow compound binding to equilibrate. After equilibration, 10 μl, of 2×ATP in 1× assay buffer was added to initiate the kinase reaction and the plates were incubated at room temperature for 120 min. At the end of the incubation, 20 μL of 2× stop buffer containing streptavidin-Dylight (Thermo #21845) and Eu-tagged pY20 antibody (Perkin Elmer #AD0067) was added to quench the reaction. Plates were further incubated 60 min at room temperature with shaking and then read on a Perkin Elmer Envision (λex=337 nm, λem=665 and 615 nm, TRF delay time=20 μs). HTRF signal=10,000*665 nm reading/615 nm reading. After normalization to untreated controls, the percent inhibition of the HTRF signal at each compound concentration was calculated. The plot of percent inhibition vs. the log of compound concentration was fit with a 4-parameter dose response equation to calculate IC50 values.

T1 sequence (P52333 822-1111 limits assumed): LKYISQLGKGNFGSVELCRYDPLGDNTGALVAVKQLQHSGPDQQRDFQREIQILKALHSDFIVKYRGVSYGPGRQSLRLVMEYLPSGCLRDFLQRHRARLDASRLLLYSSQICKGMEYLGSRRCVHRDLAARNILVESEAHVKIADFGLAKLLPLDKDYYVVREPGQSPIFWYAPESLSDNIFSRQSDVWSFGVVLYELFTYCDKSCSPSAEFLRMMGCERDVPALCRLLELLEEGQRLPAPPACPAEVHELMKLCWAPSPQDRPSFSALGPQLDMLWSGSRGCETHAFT

SMILES	pIC50
CC(C)[C@@H](Nc1cncc(-c2c[nH]c3ncc(C(N)=O)cc23)n1)C(=O)NCC(F)(F)F [16 Step 8]	≥ 9.00
C[C@@H](Nc1cncc(-c2c[nH]c3ncc(Cl)cc23)n1)C(=O)NCC(F)(F)F [Example 1, N^2-[6-(5-Chloro-1H-pyrrolo[2,3-b]pyridin-3-yl)pyrazin-2-yl]-N-(2,2,2-trifluoroethyl)-D-alaninamide]	≥ 9.00
O=C(NCC(F)(F)F)[C@@H]1CC[C@@H](Nc2cncc(-c3c[nH]c4ncc(Cl)cc34)n2)C1 [Example 1-1, (1R,3R)-3-{[6-(5-chloro-1H-pyrrolo[2,3-b]pyridin-3-yl)-pyrazin-2-yl]amino}-N-(2,2,2-trifluoroethyl)cyclopentane-carboxamide]	8.00 to 9.00
O=C(NCC(F)(F)F)[C@H]1CC[C@@H](Nc2cncc(-c3c[nH]c4ncc(Cl)cc34)n2)C1 [Example 1-2, (1S,3R)-3-{[6-(5-chloro-1H-pyrrolo[2,3-b]pyridin-3-yl)-pyrazin-2-yl]amino}-N-(2,2,2-trifluoroethyl)cyclopentane-carboxamide]	8.00 to 9.00
O=C(NCC(F)(F)F)[C@@H]1CC[C@H](Nc2cncc(-c3c[nH]c4ncc(Cl)cc34)n2)C1 [Example 1-3, (1R,3S)-3-{(6-(5-chloro-1H-pyrrolo[2,3-b]pyridin-3-yl)-pyrazin-2-yl]amino}-N-(2,2,2-trifluoroethyl)cyclopentane-carboxamide]	8.00 to 9.00
O=C(NCC(F)(F)F)[C@H]1CC[C@H](Nc2cncc(-c3c[nH]c4ncc(Cl)cc34)n2)C1 [Example 1-4, (1S,3S)-3-{[6-(5-chloro-1H-pyrrolo[2,3-b]pyridin-3-yl)-pyrazin-2-yl]amino}-N-(2,2,2-trifluoroethyl)cyclopentane-carboxamide]	7.00 to 8.00
O=C(NCC(F)(F)F)[C@@H]1CCCN1c1cncc(-c2c[nH]c3ncc(Cl)cc23)n1 [Example 1-5, 1-[6-(5-chloro-1H-pyrrolo[2,3-b]pyridin-3-yl)-pyrazin-2-yl]-N-(2,2,2-trifluoroethyl)-L-prolinamide]	8.00 to 9.00
O=C(NCC(F)(F)F)[C@H]1CCCN1c1cncc(-c2c[nH]c3ncc(Cl)cc23)n1 [Example 1-6, 1-[6-(5-chloro-1H-pyrrolo[2,3-b]pyridin-3-yl)pyrazin-2-yl]-N-(2,2,2-trifluoroethyl)-D-prolinamide]	≥ 9.00
CCNC(=O)[C@H]1CCCN1c1cncc(-c2c[nH]c3ncc(Cl)cc23)n1 [Example 1-7, 1-[6-(5-chloro-1H-pyrrolo[2,3-b]pyridin-3-yl)pyrazin-2-yl]-N-ethyl-D-prolinamide]	8.00 to 9.00
O=C(NCC(F)(F)F)[C@@H]1CC(F)(F)CN1c1cncc(-c2c[nH]c3ncc(Cl)cc23)n1 [Example 1-8, 1-[6-(5-chloro-1H-pyrrolo[2,3-b]pyridin-3-yl)pyrazin-2-yl]-4,4-difluoro-N-(2,2,2-trifluoroethyl)-L-prolinamide]	8.00 to 9.00
CC1(C(=O)NCC(F)(F)F)CCN1c1cncc(-c2c[nH]c3ncc(Cl)cc23)n1 (stereo not drawn) [Example 1-9, 1-[6-(5-chloro-1H-pyrrolo[2,3-b]pyridin-3-yl)pyrazin-2-yl]-2-methyl-N-(2,2,2-trifluoroethyl)azetidine-2-carboxamide]	≥ 9.00
C[C@@]1(C(=O)NCC(F)(F)F)CCN1c1cncc(-c2c[nH]c3ncc(Cl)cc23)n1 [Example 1-10, (2S)-1-[6-(5-chloro-1H-pyrrolo[2,3-b]pyridin-3-yl)pyrazin-2-yl]-2-methyl-N-(2,2,2-trifluoroethyl)azetidine-2-carboxamide]	8.00 to 9.00
C[C@]1(C(=O)NCC(F)(F)F)CCN1c1cncc(-c2c[nH]c3ncc(Cl)cc23)n1 [Example 1-11, (2R)-1-[6-(5-chloro-1H-pyrrolo[2,3-b]pyridin-3-yl)pyrazin-2-yl]-2-methyl-N-(2,2,2-trifluoroethyl)azetidine-2-carboxamide]	≥ 9.00
CC(C)[C@@H](Nc1cncc(-c2c[nH]c3ncc(Cl)cc23)n1)C(=O)NCC(F)(F)F [Example 1-12, N^2-[6-(5-chloro-1H-pyrrolo[2,3-b]pyridin-3-yl)pyrazin-2-yl]-N-(2,2,2-trifluoroethyl)-D-valinamide]	≥ 9.00
CC(C)(C)OC(=O)N1CCN(c2cncc(-c3c[nH]c4ncc(Cl)cc34)n2)[C@@H](C(=O)NCC(F)(F)F)C1 [Example 1-13, tert-butyl (3R)-4-[6-(5-chloro-1H-pyrrolo[2,3-b]pyridin-3-yl)pyrazin-2-yl]-3-[(2,2,2-trifluoroethyl)carbamoyl]-piperazine-1-carboxylate]	8.00 to 9.00
CC(C)(Nc1cncc(-c2c[nH]c3ncc(Cl)cc23)n1)C(=O)NCC(F)(F)F [Example 1-14, N^2-[6-(5-chloro-1H-pyrrolo[2,3-b]pyridin-3-yl)pyrazin-2-yl]-2-methyl-N-(2,2,2-trifluoroethyl)alaninamide]	≥ 9.00
O=C(NCC(F)(F)F)C1CN(c2cncc(-c3c[nH]c4ncc(Cl)cc34)n2)C1 [Example 1-15, 1-[6-(5-chloro-1H-pyrrolo[2,3-b]pyridin-3-yl)pyrazin-2-yl]-N-(2,2,2-trifluoroethyl)azetidine-3-carboxamide]	7.00 to 8.00
COC(=O)c1ncc(N[C@@H](C)C(=O)NCC(F)(F)F)nc1-c1c[nH]c2ncc(Cl)cc12 [Example 1-16, methyl 3-(5-chloro-1H-pyrrolo[2,3-b]pyridin-3-yl)-5-({(1S)-1-methyl-2-oxo-2-[(2,2,2-trifluoroethyl)amino]ethyl}amino)-pyrazine-2-carboxylate]	7.00 to 8.00
C[C@H](Nc1cncc(-c2c[nH]c3ncc(Cl)cc23)n1)C(=O)NCC(F)(F)F [Example 2, N^2-[6-(5-Chloro-1H-pyrrolo[2,3-b]pyridin-3-yl)pyrazin-2-yl]-N-(2,2,2-trifluoroethyl)-L-alaninamide]	≥ 9.00
C[C@H](Nc1cncc(-c2c[nH]c3ncc(Cl)cc23)n1)C(=O)NCC#N [Example 2-1, N^2-[6-(5-chloro-1H-pyrrolo[2,3-b]-pyridin-3-yl)pyrazin-2-yl]-N-(cyanomethyl)-L-alaninamide]	7.00 to 8.00
C[C@H](Nc1cncc(-c2c[nH]c3ncc(Cl)cc23)n1)C(=O)N1CCOCC1 [Example 2-2, 6-(5-chloro-1H-pyrrolo[2,3-b]-pyridin-3-yl)-N-[(1S)-1-methyl-2-morpholin-4-yl-2-oxoethyl]pyrazin-2-amine]	6.00 to 7.00
C[C@H](Nc1cncc(-c2c[nH]c3ncc(Cl)cc23)n1)C(=O)N1CCC(F)(F)C1 [Example 2-3, 6-(5-chloro-1H-pyrrolo[2,3-b]-pyridin-3-yl)-N-[(1S)-2-(3,3-difluoropyrrolidin-1-yl)-1-methyl-2-oxoethyl]pyrazin-2-amine]	7.00 to 8.00
C[C@H](Nc1cncc(-c2c[nH]c3ncc(Cl)cc23)n1)C(=O)N1CC(F)(F)C(F)(F)C1 [Example 2-4, 6-(5-chloro-1H-pyrrolo[2,3-b]-pyridin-3-yl)-N-[(1S)-1-methyl-2-oxo-2-(3,3,4,4-tetrafluoro-pyrrolidin-1-yl)ethyl]pyrazin-2-amine]	6.00 to 7.00
C[C@@H](Nc1cncc(-c2c[nH]c3ncc(Cl)cc23)n1)C(=O)NCc1cccnc1Cl [Example 2-5, N-[(2-chloropyridin-3-yl)methyl]-N^2-[6-(5-chloro-1H-pyrrolo[2,3-b]-pyridin-3-yl)pyrazin-2-yl]-D-alaninamide]	6.00 to 7.00
Cc1cc(CNC(=O)[C@@H](C)Nc2cncc(-c3c[nH]c4ncc(Cl)cc34)n2)no1 [Example 2-6, N^2-[6-(5-chloro-1H-pyrrolo[2,3-b]-pyridin-3-yl)pyrazin-2-yl]-N-[(5 - methylisoxazol-3-yl)methyl]-D-alaninamide]	6.00 to 7.00
C[C@@H](Nc1cncc(-c2c[nH]c3ncc(Cl)cc23)n1)C(=O)NCCc1cn[nH]c1 [Example 2-7, N^2-[6-(5-chloro-1H-pyrrolo[2,3-b]-pyridin-3-yl)pyrazin-2-yl]-N-[2-(1H-pyrazol-4-yl)ethyl]-D-alaninamide]	6.00 to 7.00
C[C@@H](Nc1cncc(-c2c[nH]c3ncc(Cl)cc23)n1)C(=O)NCCC1CC1 [Example 2-8, N^2-[6-(5-chloro-1H-pyrrolo[2,3-b]-pyridin-3-yl)pyrazin-2-yl]-N-(2-cyclopropylethyl)-D-alaninamide]	7.00 to 8.00
CC(Cc1cccnc1)NC(=O)[C@@H](C)Nc1cncc(-c2c[nH]c3ncc(Cl)cc23)n1 (stereo partly drawn) [Example 2-9, N^2-[6-(5-chloro-1H-pyrrolo[2,3-b]-pyridin-3-yl)pyrazin-2-yl]-N-(l - methyl-2-pyridin-3-ylethyl)-D-alaninamide]	6.00 to 7.00
C[C@@H](Nc1cncc(-c2c[nH]c3ncc(Cl)cc23)n1)C(=O)NCc1cccs1 [Example 2-10, N^2-[6-(5-chloro-1H-pyrrolo[2,3-b]-pyridin-3-yl)pyrazin-2-yl]-N-(thiophen-2-ylmethyl)-D-alaninamide]	6.00 to 7.00
C[C@@H](Nc1cncc(-c2c[nH]c3ncc(Cl)cc23)n1)C(=O)NCC(=O)N(C)C [Example 2-11, N-[6-(5-chloro-1H-pyrrolo[2,3-b]-pyridin-3-yl)pyrazin-2-yl]-D-alanyl-N,N-dimethylglycinamide]	6.00 to 7.00
